From ChEMBL document CHEMBL1201862, “PubChem BioAssay data set” (2004) come the findings set out here.

Test systems include XF498; DMS-273; M19-MEL; DMS-114; SNB-78; HOP-18; DLD-1; LXFL 529; RXF 631.
Common to all, as to test: NCI-60 cell line screen, 48 h

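Five compound concentrations were applied to cells in 96-well plates for 48 hours; endpoints were derived by simple linear interpolation of the resulting dose-response curve. The concentration for 50% growth inhibition is given as GI50.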 Calls of active or inactive are those of the source. Cut-off read from the data, not from the text of the source: active = GI50 up to about 1.1 µM and inactive = higher. Bounds are passed on as bounds.

In the case of `COC(=O)CCC(=O)CC1CC(=O)C2CCCN12` (stereo not drawn), the GI50 in the experiment on XF498, in the experiment with DMS-273, in the experiment with M19-MEL, in the experiment with DMS-114, in the experiment on SNB-78 and in the experiment with HOP-18 was > 100 µM (inactive) throughout. For the same compound, the GI50 with DLD-1 and in the experiment on LXFL 529 was > 100 µM (inactive) throughout.

With `Cc1nc(C(N)=O)c(N)n1CCN1CCN(C(=O)CCCCCCCCCCNC2NC=Nc3[nH]cnc32)CC1` (stereo not drawn), the GI50 in the experiment on M19-MEL was 34.4 µM (inactive); with RXF 631, > 100 µM (inactive); with DMS-114 it was 6.04 µM (inactive); in the experiment with SNB-78, 39.5 µM (inactive); in the experiment on HOP-18, > 100 µM (inactive); with LXFL 529, 11.2 µM (inactive).

Regarding `CC(=O)O[C@H]1C(=O)[C@@]2(C)C(C(OC(=O)c3ccccc3)[C@]3(O)CC(OC(=O)C(O)C(NC(=O)c4ccc(C(F)(F)F)cc4)c4ccccc4)C(C)=C1C3(C)C)[C@]1(OC(C)=O)CO[C@@H]1C[C@@H]2O` (stereo partly drawn), the GI50 in the experiment on XF498 is 0.681 µM (active); in the experiment with DMS-273, 0.0431 µM (active); in the experiment on M19-MEL, 0.0824 µM (active); in the experiment on DMS-114, 0.0226 µM (active); in the experiment with SNB-78, 0.453 µM (active); with HOP-18, 0.836 µM (active). Moreover, in the experiment on DLD-1, the GI50 is 0.231 µM (active).

Consider `O=C1NC2C(=O)N(Cc3ccccc3)C(=O)C2N1` (stereo not drawn), for which the GI50 in the experiment on XF498, in the experiment with M19-MEL, in the experiment on DMS-114, in the experiment on SNB-78, with DLD-1 and in the experiment on LXFL 529 was > 100 µM (inactive) throughout.

Take `O=C(/C=C(\O)C(=O)O)/C=C(\O)c1ccccc1Cl`: the GI50 with XF498, in the experiment with DMS-273, in the experiment on DMS-114, in the experiment on HOP-18, in the experiment on DLD-1 and in the experiment with LXFL 529 was > 100 µM (inactive) in each case.

`CCC[S+]([O-])c1nc(COC(=O)NC)c(COC(=O)NC)n1C` (stereo not drawn): the GI50 with XF498, with DMS-273, with M19-MEL, in the experiment on RXF 631, in the experiment on DMS-114 and with SNB-78 was > 100 µM (inactive) throughout. The GI50 in the experiment on HOP-18, with DLD-1 and with LXFL 529 was > 100 µM (inactive) each time.

Consider `COC1C(C)OC(OC2CC(C)(O)Cc3cc4c(c(O)c32)C(=O)c2c(O)cc3c(c2C4=O)OC2OC3(C)C(O)C(N(C)C)C2O)C(OC)C1(C)OC` (stereo not drawn), for which the GI50 is 0.0165 µM (active) with XF498; 0.015 µM (active) in the experiment on DMS-273; 0.155 µM (active) in the experiment with RXF 631; 0.0282 µM (active) in the experiment with SNB-78; 0.11 µM (active) in the experiment with HOP-18; 0.119 µM (active) in the experiment on DLD-1. For the same compound, in the experiment on LXFL 529, the GI50 was 0.0318 µM (active).

As for `CC/C(CC(=O)CCC(=O)Nc1ccc(C)c(C)c1)=N\NC(=O)C(N)=O`, the GI50 with XF498, with DMS-273, in the experiment with M19-MEL, in the experiment with DMS-114, with SNB-78 and with HOP-18 was > 100 µM (inactive) each time. For the same compound, the GI50 with DLD-1 and in the experiment on LXFL 529 was > 100 µM (inactive) throughout.

`CCOC(=O)CCC1(C(=O)OCC)CCCC1=O` (stereo not drawn): the GI50 was > 100 µM (inactive) in the experiment on XF498; 43.2 µM (inactive) in the experiment on DMS-273; > 100 µM (inactive) in the experiment with M19-MEL; > 100 µM (inactive) in the experiment on RXF 631; > 100 µM (inactive) in the experiment on DMS-114; > 100 µM (inactive) in the experiment with SNB-78. The GI50 in the experiment on HOP-18, in the experiment with DLD-1 and with LXFL 529 was > 100 µM (inactive) throughout.

Regarding `C=CCNC(=O)/C=C\C(=O)O`, the GI50 with DMS-273, in the experiment on M19-MEL, in the experiment on RXF 631, with DMS-114, in the experiment with SNB-78 and with HOP-18 was > 100 µM (inactive) each time. Further, the GI50 with DLD-1 and with LXFL 529 was > 100 µM (inactive) throughout.

For the compound `COP(=O)(OC)/C(=N\Nc1ccc([N+](=O)[O-])cc1)NCc1ccccc1`, the GI50 was 36.3 µM (inactive) in the experiment on DMS-273; 37.3 µM (inactive) with M19-MEL; 21.4 µM (inactive) in the experiment on DMS-114; 33.3 µM (inactive) in the experiment on DLD-1; 31.8 µM (inactive) with LXFL 529.

With `NN=C1/C(=C\c2ccccc2)CCC/C1=C/c1ccccc1`, the GI50 with DMS-273 is 39.9 µM (inactive); in the experiment with M19-MEL it was 31.6 µM (inactive); in the experiment with DMS-114 it was 26.1 µM (inactive); in the experiment on SNB-78, 50.5 µM (inactive); in the experiment on HOP-18, 63.4 µM (inactive); in the experiment on DLD-1, 31.8 µM (inactive). In addition, the GI50 with LXFL 529 was 31.4 µM (inactive).

As for `CC1CC(C)C2OC2(C)C[C@H](C)C(=O)NC(C)C(=O)N(C)[C@H](Cc2c(Br)[nH]c3ccccc23)C(=O)N[C@@H](c2ccc(O)cc2)CC(=O)O1` (stereo partly drawn), the GI50 was 0.838 µM (active) with XF498; 0.0241 µM (active) in the experiment on DMS-273; 0.161 µM (active) in the experiment with M19-MEL; 0.76 µM (active) in the experiment with RXF 631; 0.0348 µM (active) with DMS-114; 0.309 µM (active) with SNB-78. The GI50 in the experiment on DLD-1 was 3.37 µM (inactive); in the experiment on LXFL 529, 0.221 µM (active).

On to `Cc1ccc2nc3cc(C)c(=O)cc-3sc2c1`, for which the GI50 in the experiment with DMS-273 is > 100 µM (inactive); with M19-MEL, 16.1 µM (inactive); in the experiment on DMS-114, 40.7 µM (inactive); in the experiment on SNB-78, > 100 µM (inactive); with HOP-18 it was > 100 µM (inactive); in the experiment with DLD-1 it was > 100 µM (inactive). Further, the GI50 with LXFL 529 is 78.5 µM (inactive).

Regarding `COc1ccc(/C=C2\CCCC(C(NO)c3ccc(OC)cc3)C2=NO)cc1` (stereo not drawn), the GI50 is 45.9 µM (inactive) in the experiment on DMS-273; 46.3 µM (inactive) with M19-MEL; 40.5 µM (inactive) in the experiment with RXF 631; 28.4 µM (inactive) in the experiment on DMS-114; 45.7 µM (inactive) in the experiment with SNB-78; 32.4 µM (inactive) with HOP-18. Moreover, the GI50 in the experiment on DLD-1 was 46.7 µM (inactive); in the experiment with LXFL 529 it was 28.1 µM (inactive).

Regarding `O=NN(CCCl)C(=O)NC1CCC(=O)NC1=O` (stereo not drawn), the GI50 in the experiment with XF498 is 69 µM (inactive); in the experiment on DMS-273, 160 µM (inactive); in the experiment on M19-MEL, 250 µM (inactive); in the experiment with DMS-114, 214 µM (inactive); in the experiment with SNB-78, 176 µM (inactive); with HOP-18, 432 µM (inactive). Moreover, the GI50 in the experiment on DLD-1 is 358 µM (inactive).

In the case of `CC(=O)/C=C\C1CC2C=CC1C2` (stereo not drawn), the GI50 was 41 µM (inactive) in the experiment with DMS-273; 55.3 µM (inactive) in the experiment on M19-MEL; 51.5 µM (inactive) in the experiment on RXF 631; 21.5 µM (inactive) with DMS-114; 22.1 µM (inactive) with SNB-78; 96.6 µM (inactive) in the experiment with HOP-18. Besides, the GI50 in the experiment with DLD-1 is 15.1 µM (inactive); in the experiment with LXFL 529, 29.4 µM (inactive).

Turning to `COc1c(NC(C)=O)cc(C)cc1NC(C)=O`, the GI50 in the experiment with XF498, in the experiment with DMS-273, in the experiment with M19-MEL, in the experiment on DMS-114, in the experiment on SNB-78 and in the experiment on DLD-1 was > 100 µM (inactive) throughout.

In the case of `Cc1ccc(NC(=O)CC(=O)n2nc(-c3ccccc3)c(/N=N\c3ccccc3[N+](=O)[O-])c2-c2ccccc2)cc1`, the GI50 in the experiment with XF498 was 37.5 µM (inactive); with DMS-273, 44 µM (inactive); in the experiment with M19-MEL, > 100 µM (inactive); in the experiment with RXF 631, 27.6 µM (inactive); with DMS-114 it was 84.5 µM (inactive); with SNB-78 it was > 100 µM (inactive). The GI50 with HOP-18 was > 100 µM (inactive); in the experiment with DLD-1 it was 77.8 µM (inactive); with LXFL 529, 38.6 µM (inactive).

For the compound `CS(=O)(=O)N(CCC#N)c1ccc(C=O)cc1`, the GI50 in the experiment with XF498, in the experiment with DMS-273, in the experiment on M19-MEL, in the experiment on DMS-114 and with LXFL 529 was > 100 µM (inactive) throughout.

With `CCc1nc2ccccc2c(=O)n1/N=C(\N=N\c1ccc(Cl)cc1)c1ccccc1`, the GI50 in the experiment on DMS-273 is 20.7 µM (inactive); in the experiment with M19-MEL, 41.8 µM (inactive); in the experiment with DMS-114, 18.7 µM (inactive); with SNB-78, 27.1 µM (inactive); in the experiment on HOP-18, 12.5 µM (inactive); in the experiment with DLD-1, 37.2 µM (inactive). Besides, in the experiment on LXFL 529, the GI50 was 19.1 µM (inactive).

Take `O=C(/C=C/c1c(O)ccc2ccccc12)c1ccc2ccccc2c1`: the GI50 in the experiment with DMS-273 is > 100 µM (inactive); in the experiment with M19-MEL it was 18.2 µM (inactive); in the experiment on DMS-114 it was > 100 µM (inactive); in the experiment with SNB-78, > 100 µM (inactive); in the experiment on DLD-1, > 100 µM (inactive).

As to `CC1(O)CCn2c(=O)c3cc4ccccc4cc3c(=O)n2C1O` (stereo not drawn), the GI50 is > 100 µM (inactive) in the experiment on DMS-273; > 100 µM (inactive) with M19-MEL; > 100 µM (inactive) with RXF 631; > 100 µM (inactive) in the experiment with DMS-114; 26.8 µM (inactive) with HOP-18; > 100 µM (inactive) in the experiment on DLD-1. In addition, the GI50 in the experiment with LXFL 529 is > 100 µM (inactive).

On to `O=c1[nH]c(C2CCCCC2)nc2cc(Cl)ccc12`, for which the GI50 in the experiment with DMS-273, in the experiment on M19-MEL, in the experiment with DMS-114, with SNB-78 and in the experiment on LXFL 529 was > 100 µM (inactive) each time.
